Assay results published in patent publication US20250295119A1, “SPHERICAL NAN[…] FROM TMGMV IMPROVE SOIL TRANSPORT OF SMALL, HYDROPHOBIC AGROCHEMICALS” (THE REGENTS OF THE UNIVERSITY OF CALIFORNIA, priority 2022, published 2025).

Assays:
C. elegans [1] = experiment: Pluronic F127 gel burrowing assay after treatment of C. elegans in solution; type: in vivo, Caenorhabditis elegans; conditions: 10 μM ivermectin (normalized), 90 minutes incubation in solution, no soil passage
Method: (§1) As a final test, Applicant delivered IVN-SNPs against C. elegans (FIG. 4). Nematodes were incubated with SNPs, IVN-SNPs, and free IVN for 90 minutes in solution. In parallel, the same (IVN-)SNPs were passed through a soil column and collected before treating the C. elegans in solution. For all samples, Applicant performed a modified gel burrowing assay (FIG. 4A) by transferring the nematodes and casting them in Pluronic F127 in a well-plate^23. The surface was coated with E. coli OP-50 lysate to attract the nematodes, and the number of C. elegans which penetrated to the surface were counted. Nematode mobility was quantified based on their total track coverage using edge detection (FIGS. 4B-4D, FIG. 13, FIG. 14). The mobility was then estimated using the following equation: […]
Using the optimized Pluronic concentration of 26% w/w previously reported, Pluronic F127 solutions were stored at 4° C. to dissolve and stay soluble (Lesanpezeshki, L. et al., Scientific Reports 2019). […] After 2 hours, an 11×11 area scan at 4× magnification (Keyence BZ-X800 Fluorescence Microscope) was taken for each well. The number of nematodes on the surface were counted manually and the area fraction of their tracks was determined by edge detection and binary image transformation in ImageJ.

C. elegans [2] = experiment: Pluronic F127 gel burrowing assay with samples first passed through a 10 cm soil column; type: in vivo, Caenorhabditis elegans; conditions: 10 μM ivermectin, collected fractions
Method: as §1
Magic Topsoil (Michigan Peat) was weighed and packed into a cylindrical column fitted with miracloth at the bottom. […] The band intensity of the fractions on SDS PAGE was determined using ImageJ. […]
Using the optimized Pluronic concentration of 26% w/w previously reported, Pluronic F127 solutions were stored at 4° C. to dissolve and stay soluble (Lesanpezeshki, L. et al., Scientific Reports 2019). […] After 2 hours, an 11×11 area scan at 4× magnification (Keyence BZ-X800 Fluorescence Microscope) was taken for each well. […]

ivermectin
reduction in surface velocity (C. elegans [1]): 4.5 fold
reduction in the number of nematodes on the surface (C. elegans [1]): 6 fold
reduction in surface velocity after passing through a soil column (C. elegans [2]): no reduction
reduction in the number of nematodes after passing through a soil column (C. elegans [2]): no reduction
